Measured values as given in patent US4058659A, “6,8-Disubstituted purine derivatives of 9-β-D-ribofuranosyl 3',5'-cyclic phosphate” (ICN Pharmaceuticals, Inc., priority 1975, dated 1977).
Where a name gives a salt, the structure may show the parent alone.

Tests used:
[1] = tested on: renal and mesenteric blood flow; assay: Renal and mesenteric blood flow in anesthetized dogs; assay type: in vivo, dog
[2] = tested on: intact anesthetized dog (myocardial contractility); assay: In vivo positive inotropic effect (dP/dT max) in the intact anesthetized dog; settings: i.v. infusion 1 mg/kg per min
Procedure: (§1) The measurement dP/dT max was used as the index of change in myocardial contractility (inotropism). Compound 12 was given as an intravenous infusion at the rate of 1 mg/kg per min. in total single doses of 1.0 to 10.0 mg/kg and the values are expresses as percent of control.
In Vivo Positive Inotropic Effect
Measurement of myocardial contractility (inotropism)
using dP/dT max (% of control) as index of measurement of inotropic

[3] = tested on: isolated cat papillary muscle; assay: Positive inotropic effect: % change in contractile force in isolated cat papillary muscle
unanesthetized dogs = assay: Inotropic effect in unanesthetized dogs; assay type: in vivo, dog; settings: compared with anesthetized dogs
Procedure: as §1

[4] = Anti-inflammatory activity in in vivo animal testing
[5] = Antihypertensive properties in in vivo animal testing

8-(Benzylthio)-6-(diethylamino)-9-β-D-ribofuranosylpurine 3',5'-CyclicPhosphate [Compound 12]
mesenteric blood flow [1]: increase in renal and mesenteric blood flow
renal blood flow [1]: increase in renal and mesenteric blood flow
dP/dT max (% of control) ([2]; 1.0 mg/kg, 1 minute after infusion): 120%
dP/dT max (% of control) ([2]; 1.0 mg/kg, 3 minutes after infusion): 120%
dP/dT max (% of control) ([2]; 1.0 mg/kg, 5 minutes after infusion): 130%
dP/dT max (% of control) ([2]; 1.0 mg/kg, 15 minutes after infusion): 110%
dP/dT max (% of control) ([2]; 3.1 mg/kg, 1 minute after infusion): 200%
dP/dT max (% of control) ([2]; 3.1 mg/kg, 3 minutes after infusion): 180%
dP/dT max (% of control) ([2]; 3.1 mg/kg, 5 minutes after infusion): 160%
dP/dT max (% of control) ([2]; 3.1 mg/kg, 15 minutes after infusion): 140%
dP/dT max (% of control) ([2]; 3.1 mg/kg, 30 minutes after infusion): 105%
dP/dT max (% of control) ([2]; 10.0 mg/kg, 1 minute after infusion): 210%
dP/dT max (% of control) ([2]; 10.0 mg/kg, 3 minutes after infusion): 200%
dP/dT max (% of control) ([2]; 10.0 mg/kg, 5 minutes after infusion): 180%
dP/dT max (% of control) ([2]; 10.0 mg/kg, 15 minutes after infusion): 140%
dP/dT max (% of control) ([2]; 10.0 mg/kg, 30 minutes after infusion): 100%
% change in Contractile Force (CF) ([3]; 1.0 μg/ml): 3.8%
% change in Contractile Force (CF) ([3]; 3.1 μg/ml): 8.0%
% change in Contractile Force (CF) ([3]; 10.0 μg/ml): 12.7%
% change in Contractile Force (CF) ([3]; 31.0 μg/ml): 27.0%
% change in Contractile Force (CF) ([3]; 100 μg/ml): 46.0%
% change in Contractile Force (CF) ([3]; 310 μg/ml): 56.0%
positive inotropic effect ([3]; statement in words, isolated cat papillary muscle): exhibit positive inotropic effect
inotropic effect in unanesthetized dogs (unanesthetized dogs): same inotropic effect

CC(=O)O[C@@H]1[C@@H]2OP(=O)(O)OC[C@H]2O[C@H]1n1c(Sc2ccc(Cl)cc2)nc2c(Cl)ncnc21 [Compound 33, 2'-O-Acetyl-6-chloro-8-(p-chlorophenylthio)-9-β-D-ribofuranosylpurine 3',5'-Cyclic Phosphate Sodium Salt]
anti-inflammatory activity [4]: displayed anti-inflammatory activity
antihypertensive properties [5]: displayed antihypertensive properties
